Data as given in patent US7276519B2, “Thieno[3,2-b]pyridine-6-carbonitriles and thieno[2,3-b]pyridine-5-carbonitriles as protein kinase inhibitors” (Wyeth, priority 2002, dated 2007).
Values joined by “and” are separate entries in the source; they are usually repeats but may differ in a detail not shown here. Equal values may be shown once. Read-outs that look alike come from different tables or passages of the source.

Legend:
[1] = system: Rat2 fibroblasts stably transformed with v-Src/Hu c-Src fusion gene; assay: Anchorage independent Src-transformed fibroblast proliferation assay; type: cell-based, rat
Description: Anchorage Independent Src-Transformed Fibroblast Proliferation Assay Rat2 fibroblasts stably transformed with a plasmid containing a CMV promotor controlled v-Src/Hu c-Src fusion gene in which the catalytic domain of human c-Src was inserted in place of the v-Src catalytic domain in the v-Src gene are used for the measurement of src dependent suspension growth. […] Multiple entries for a given compound indicate that it was tested multiple times.

[2] = target: T1, Rat2 fibroblasts stably transformed with v-Src/Hu Lck fusion gene (Homo sapiens, UniProt P06239, cells depend on it, form not given); assay: Anchorage independent Lck-transformed fibroblast proliferation assay; type: cell-based, rat; settings: Table 3; read-out: Lck Cells IC50
T1 construct: Candidates are e.g. Schmidt-Ruppin A (P00524) or Prague C (P00526); The human Lck catalytic domain stands in place of the v-Src catalytic domain
Method in brief: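 Rat2 fibroblasts expressing a CMV-driven v-Src/human Lck catalytic-domain fusion grown in suspension on ultra-low attachment plates, 10,000 cells/well. Compound added Day 2 as two-fold dilutions from 10 to 0.009 micromolar; MTS added Day 5, absorbance read at 490 nm. IC50 derived from blank-corrected % of no-compound control.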

[3] = target: T2, Recombinant human Src enzyme (Homo sapiens, UniProt P12931); assay: Src kinase assay (LANCE FRET); type: biochemical; settings: Table 3; 100 μM ATP, biotinylated Cdk1 peptide substrate
T2 construct: purchased PanVera P3044
Description: Recombinant human Src enzyme was obtained from PanVera (P3044). […] Homogeneous fluorescence resonance energy transfer kinase assays were performed using the europium/APC detection format (LANCE, Perkin Elmer). Src enzyme (10 ng) was mixed with biotinylated peptide (final concentration 2 μM), 50 mM Hepes (pH 7.5), 10 mM MgCl2, 20 μg/ml BSA, 0.001% Brij-35 (sigma), 100 μM ATP, 1% DMSO. The kinase reaction was incubated for 70 min at 37° C. The reaction was stopped with EDTA at a final concentration of 30 mM EDTA/25 mM Hepes (pH 7.5)/10 μg/ml BSA. The mixture was combined with Eu-labeled anti-phosphotyrosine antibody PT66 (Perkin Elmer, AD0068) and Streptavidin Surelight-APC (Perkin Elmer, CR130-100) in 50 mM Hepes (pH 7.5)/20 μg/ml BSA, and incubated for 30 min according to manufacturer's specifications. […] Multiple entries for a given compound indicate that it was tested multiple times.

LoVo cells = assay: Cell based screen for inhibitors of Raf and/or Mek kinase, LoVo; set-up: species or system human; settings: Homo sapiens, LoVo, 96 h, Table 4; four days incubation, SRB
Description: (§1) Cell Based Screen for Inhibitors of Raf and/or Mek Kinase.
(§2) Cell Lines: Human tumor cell lines LoVo which are known to be growth inhibited by low nM concentrations of a reference standard inhibitor of Ras and human adenocarcinoma cell line CaCo-2, which is known to be growth resistant to the same reference compound.
(§3) Cell Media: RPMI 1640 with 10% Fetal Bovine Serum supplemented with L-glutamine and Pennicilin/Streptomycin. • Compounds: Supplied usually as a 10 mM stock in 100% DMSO. • Normal Saline: 150 mM NaCl • Trichloroacetic Acid (TCA): 50% (w/v) in water • Sulforhodamine B (SRB): 0.4% (w/v) in 1% Acetic Acid • Tris Base: 10 mM in water Methods
(§4) Cells are plated at 2000 cells per well for cell line LoVo, 1,750 cells for cell line BXPC3, 1,000 cells for cell line WM266–4 and 1500 cells for cell line CaCo-2 in 96 well plates. Cells are plated in media (200 μl) and allowed to adhere overnight at 37° C. At 24 hours post plating, compounds are added directly at a volume of 0.5 μl. For the qualitative screen (compounds screened at 25 μM) compound is added directly to cells. For the quantitative screen, compound is first diluted in DMSO to generate concentrations of compound or reference standard of: 1, 5, 10 and 25 μM. It is advisable to make the dilutions in an identical 96 well plate so that compounds can be added using a multichannel micropipettor set at 0.5 μl. The cells are then incubated for four days after which the media is removed using a 12 well manifold by first tipping the plate forward at a 45 degree angle and then inserting the manifold in an upright orientation to prevent the tips of the manifold from disturbing cells at the bottom of the plate. 200 μl of normal saline is then added to each well using an 8 well multichannel pipettor, followed by the careful addition of 50 μl of 50% TCA. The plates are then incubated for 2 hours at 4° C., after which the supernatant is removed using the same technique as above and the plated washed twice with 200 μl water. The plates are then air dried and 50 μl of SRB stock solution is carefully added so that the entire bottom of each well is covered. This again can be used using an 8 well multichannel pipettor. The SRB is incubated with fixed cells for 15 minutes at room temperature after which the SRB is removed with the manifold as described above and the plates washed twice with 350 μl of 1% acetic acid per well each time. The plates are then air dried after which the bound SRB is released from protein by the addition of 200 μl of Tris base. Resolubilizing the SRB is aided by placing the plates on a rotator for 15–30 minutes. The absorbance of each well is determined at 550 or 562 nm using a microtiter plate reader.
(§5) Each compound or dilution thereof is performed in triplicate. Outliers are identified by visual inspection of the data. Each plate should have a “0” control (vehicle only).
(§6) Quantitative Assay: A standard curve is constructed by plotting the concentration of compound against the average absorbance calculated at that concentration. A curve is plotted and the concentration at which the curve passes through the 50% the absorbance mark seen in the “0” control well is the IC50 calculated for that compound. Multiple entries for a given compound indicate that it was tested multiple times.

BXPC3 cells = assay: Cell based screen for inhibitors of Raf and/or Mek kinase, BXPC3; settings: Homo sapiens, BXPC-3, 96 h; Table 4; four days incubation, SRB
Description: as §1, §2, §3, §4, §5, §6

[4] = Rattus norvegicus, Rat2, Table 3, read-out: Src Cells IC50 μM or % inhib at 10 μM (IC50 values)
[5] = Table 3, read-out: Src Cells IC50 μM or % inhib at 10 μM (IC50 values)
[6] = Rattus norvegicus, Rat2, read-out: Src Cells IC50 μM or % inhib at 10 μM (IC50 values), Table 3
[7] = read-out: Src Cells IC50 μM or % inhib at 10 μM (IC50 values), Table 3

T2 sequence (P12931 whole entry): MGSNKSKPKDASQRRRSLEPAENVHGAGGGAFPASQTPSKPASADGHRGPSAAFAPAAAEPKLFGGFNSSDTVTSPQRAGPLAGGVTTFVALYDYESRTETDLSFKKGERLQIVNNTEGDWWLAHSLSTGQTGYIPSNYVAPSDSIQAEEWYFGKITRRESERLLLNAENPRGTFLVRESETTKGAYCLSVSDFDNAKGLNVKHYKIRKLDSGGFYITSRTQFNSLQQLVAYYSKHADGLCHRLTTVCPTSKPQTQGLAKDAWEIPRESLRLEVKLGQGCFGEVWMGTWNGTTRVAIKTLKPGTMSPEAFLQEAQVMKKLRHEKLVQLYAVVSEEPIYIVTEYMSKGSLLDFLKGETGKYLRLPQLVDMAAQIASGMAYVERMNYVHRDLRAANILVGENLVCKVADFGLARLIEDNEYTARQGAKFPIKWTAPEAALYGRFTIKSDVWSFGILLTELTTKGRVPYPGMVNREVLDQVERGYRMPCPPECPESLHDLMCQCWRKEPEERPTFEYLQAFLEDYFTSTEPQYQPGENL
T1 sequence (P06239 whole entry, change not shown, the tested form may be a part): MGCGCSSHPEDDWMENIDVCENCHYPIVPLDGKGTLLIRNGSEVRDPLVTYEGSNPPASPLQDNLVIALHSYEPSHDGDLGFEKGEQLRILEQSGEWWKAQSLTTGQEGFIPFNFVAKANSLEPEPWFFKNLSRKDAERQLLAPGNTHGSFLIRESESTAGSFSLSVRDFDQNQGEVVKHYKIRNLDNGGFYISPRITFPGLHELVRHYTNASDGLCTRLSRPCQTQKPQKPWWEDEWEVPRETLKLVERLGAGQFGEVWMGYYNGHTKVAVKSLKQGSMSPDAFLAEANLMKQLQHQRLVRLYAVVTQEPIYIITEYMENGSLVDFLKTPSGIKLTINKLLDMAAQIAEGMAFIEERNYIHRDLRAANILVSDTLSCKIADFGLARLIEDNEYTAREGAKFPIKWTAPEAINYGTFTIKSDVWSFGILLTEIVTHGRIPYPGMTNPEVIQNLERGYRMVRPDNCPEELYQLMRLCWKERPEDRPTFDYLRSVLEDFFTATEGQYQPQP

Compound: COc1cc(Nc2c(C#N)cnc3cc(-c4ccc(CN5CCOCC5)cn4)sc23)c(Cl)cc1Cl [Example 108, 7-[(2,4-dichloro-5-methoxyphenyl)amino]-2-[5-(morpholin-4-ylmethyl)pyridin-2-I]thieno[3,2-b]pyridine-6-carbonitrile]
- IC50 [1, 4]: 0.474 µM
- IC50 [1, 5]: 0.319 µM
- GI50 [2]: 0.201 µM and 0.24 µM
- melting point: 227 to 229 °C
- IC50 [3]: 13 nM and 12 nM

Compound: COc1cc(Nc2c(C#N)cnc3cc(-c4ccc(C(=O)N5CCN(C)CC5)cc4)sc23)c(Cl)cc1Cl [Example 117, 7-[(2,4-dichloro-5-methoxyphenyl)amino]-2-{4-[(4-methylpiperazin-1-yl)carbonyl]phenyl}thieno[3,2-b]pyridine-6-carbonitrile]
- IC50 [1, 6]: 0.388 µM
- IC50 [1, 7]: 0.274 µM
- GI50 [2]: 0.129 µM and 0.171 µM
- melting point: 240 to 243 °C (dec.)
- IC50 [3]: 15 nM and 11 nM

Compound: CCN(CC)CC#Cc1cc2ncc(C#N)c(Nc3ccc(Sc4nccn4C)c(Cl)c3)c2s1 [Example 118, 7-({3-chloro-4-[(1-methyl-1H-imidazol-2-yl)thio]phenyl}amino)-2-[3-(diethylamino)prop-1-ynyl]thieno[3,2-b]pyridine-6-carbonitrile]
- IC50 (LoVo cells): 73 nM
- melting point: 190 to 194 °C
- IC50 (BXPC3 cells): 71 nM

Compound: CCOc1cc(Nc2c(C#N)cnc3cc(-c4ccc(CN5CCN(C)CC5)cc4)sc23)c(Cl)cc1Cl [Example 123, 7-[(2,4-dichloro-5-ethoxyphenyl)amino]-2-{4-[(4-methylpiperazin-1-yl)methyl]phenyl}thieno[3,2-b]pyridine-6-carbonitrile]
- IC50 [1, 6]: > 10 µM
- GI50 [2]: 3.23 µM and 4.69 µM
- melting point: 227 to 229 °C
- IC50 [3]: 943 nM and 1020 nM

Compound: COc1cc(Nc2c(C#N)cnc3cc(-c4ccc(CCN(C)C)cc4)sc23)c(Cl)cc1Cl [Example 134, 7-[(2,4-dichloro-5-methoxyphenyl)amino]-2-{4-[2-(dimethylamino)ethyl]phenyl}thieno[3,2-b]pyridine-6-carbonitrile]
- IC50 [1, 6]: 0.505 µM
- IC50 [1, 7]: 0.337 µM
- GI50 [2]: 0.13 µM and 0.17 µM
- melting point: 196 to 197 °C
- IC50 [3]: 7.6 nM and 10 nM

Compound: COc1cc(Nc2c(C#N)cnc3c(-c4ccc(CN(C)C)cc4)csc23)c(Cl)cc1Cl [Example 141, 7-[(2,4-Dichloro-5-methoxyphenyl)amino]-3-{4-[(dimethylamino)methyl]phenyl}thieno[3,2-b]pyridine-6-carbonitrile]
- IC50 [1, 4]: 4.52 µM
- IC50 [1, 5]: 4.11 µM
- GI50 [2]: 3.18 µM and 4.24 µM
- melting point: 201 to 202 °C
- IC50 [3]: 4350 nM and 5040 nM

Compound: COc1cc(Nc2c(C#N)cnc3c(-c4ccc(CN5CCN(C)CC5)cc4)csc23)c(Cl)cc1Cl [Example 142, 7-[(2,4-dichloro-5-methoxyphenyl)amino]-3-{4-[(4-methylpiperazin-1-yl)methyl]phenyl}thieno[3,2-b]pyridine-6-carbonitrile]
- IC50 [1, 4]: 3.25 µM
- IC50 [1, 5]: 1.99 µM
- GI50 [2]: 3.54 µM and 4.35 µM
- melting point: 197 to 198 °C
- IC50 [3]: > 10000 nM

Compound: COc1cc(Nc2c(C#N)cnc3c(-c4ccc(CN5CCOCC5)cc4)csc23)c(Cl)cc1Cl [Example 143, 7-[(2,4-dichloro-5-methoxyphenyl)amino]-3-[4-(morpholin-4-ylmethyl)phenyl]thieno[3,2-b]pyridine-6-carbonitrile]
- inhibition at 10 µM ([1]; Rattus norvegicus, Rat2, Table 3, at 10 μM, read-out: Src Cells IC50 μM or % inhib at 10 μM (% values)): 61%
- Src Cells IC50 μM or % inhib at 10 μM (% values) ([1]; Table 3, at 10 μM): 45%
- GI50 [2]: > 10 µM
- melting point: 184 to 185 °C
- IC50 [3]: > 10000 nM
